These results are taken from publication PMC4695185, “Semi-synthetic ocotillol analogues as selective ABCB1-mediated drug resistance reversal agents” (Oncotarget, 2015).

Each structure is given as a SMILES string. Where two headings read alike, the source gives them in different places.

A word on the EC50: it is the midpoint of the concentration-response curve. A low value points to an effect from little substance.

For series [1], the system named is T1, HEK/ABCG2.
T1 construct: HEK293 transfected with ABCG2 (wild type)
In words: cells. Further details: species or system HEK293 and transfected HEK293; MTT cytotoxicity, absorbance 570 nm, 72 h. The following applies: Homo sapiens, HEK293, 72 h; drug alone; read-out: IC50 HEK/ABCG2 (mitoxantrone). The protocol: (§1) The MTT colorimetric assay was used to detect the sensitivity of the cells against anticancer drugs. Cells (5 × 10^3/well) were seeded evenly into (160 μl/well) 96-well plates and cultured overnight. For the reversal experiments, ORA, OSA, and parallel control modulators (20 μl/well) were added 1 h prior. Different concentrations of the chemotherapeutic drugs (20 μl/well) were then added into the designated wells. After 72 h of incubation, 20 μl of MTT solution (4 mg/ml) was added to each well, and the plate was further incubated for 4 h. Subsequently, the medium was discarded, and 100 μl of dimethylsulfoxide (DMSO) was added into each well to dissolve the formazan crystals. The absorbance was determined at 570 nm by the OPSYS microplate reader (DYNEX Technology, Inc., Chantilly, VA). The IC50 value was calculated from the survival curves using the modified Bliss method. Verapamil was used at a nontoxic concentration of 3 μM as a positive control for ABCB1 overexpressing cell lines. FTC at 3 μM and PAK-104P at 10 μM were used as positive control for ABCG2 and ABCC1 overexpressing cell lines, respectively.

The test system of series [2] is HEK293. In words: cells. Further details: species or system HEK293 and transfected HEK293; MTT cytotoxicity, absorbance 570 nm, 72 h. The settings on record: Homo sapiens, HEK293, 72 h, drug alone. How it is done:
as §1

Series [3] addresses T2, ABCB1 (Homo sapiens, UniProt P08183). In words: biochemical. Further details: full length ABCB1 (HEK/ABCB1); crude membranes of High-five cells expressing ABCB1.
For series [4], the target named is T2, ABCB1. In words: cell-based. Further details: crude membranes of High-five cells expressing ABCB1. The settings on record: read-out: vanadate-sensitive ATPase stimulation in crude membranes (weak: maximal 1.78-fol).
For series [5], the target named is T2, ABCB1.
The subject of series [6] is T3, HEK/ABCB1.
T3 construct: HEK293 transfected with ABCB1
In words: cells. The following applies: Homo sapiens, HEK293, 72 h; drug alone; read-out: IC50 HEK/ABCB1 (paclitaxel). The arrangement: species or system HEK293 and transfected HEK293; MTT cytotoxicity, absorbance 570 nm, 72 h. The protocol: as §1

T2 sequence (P08183 whole entry): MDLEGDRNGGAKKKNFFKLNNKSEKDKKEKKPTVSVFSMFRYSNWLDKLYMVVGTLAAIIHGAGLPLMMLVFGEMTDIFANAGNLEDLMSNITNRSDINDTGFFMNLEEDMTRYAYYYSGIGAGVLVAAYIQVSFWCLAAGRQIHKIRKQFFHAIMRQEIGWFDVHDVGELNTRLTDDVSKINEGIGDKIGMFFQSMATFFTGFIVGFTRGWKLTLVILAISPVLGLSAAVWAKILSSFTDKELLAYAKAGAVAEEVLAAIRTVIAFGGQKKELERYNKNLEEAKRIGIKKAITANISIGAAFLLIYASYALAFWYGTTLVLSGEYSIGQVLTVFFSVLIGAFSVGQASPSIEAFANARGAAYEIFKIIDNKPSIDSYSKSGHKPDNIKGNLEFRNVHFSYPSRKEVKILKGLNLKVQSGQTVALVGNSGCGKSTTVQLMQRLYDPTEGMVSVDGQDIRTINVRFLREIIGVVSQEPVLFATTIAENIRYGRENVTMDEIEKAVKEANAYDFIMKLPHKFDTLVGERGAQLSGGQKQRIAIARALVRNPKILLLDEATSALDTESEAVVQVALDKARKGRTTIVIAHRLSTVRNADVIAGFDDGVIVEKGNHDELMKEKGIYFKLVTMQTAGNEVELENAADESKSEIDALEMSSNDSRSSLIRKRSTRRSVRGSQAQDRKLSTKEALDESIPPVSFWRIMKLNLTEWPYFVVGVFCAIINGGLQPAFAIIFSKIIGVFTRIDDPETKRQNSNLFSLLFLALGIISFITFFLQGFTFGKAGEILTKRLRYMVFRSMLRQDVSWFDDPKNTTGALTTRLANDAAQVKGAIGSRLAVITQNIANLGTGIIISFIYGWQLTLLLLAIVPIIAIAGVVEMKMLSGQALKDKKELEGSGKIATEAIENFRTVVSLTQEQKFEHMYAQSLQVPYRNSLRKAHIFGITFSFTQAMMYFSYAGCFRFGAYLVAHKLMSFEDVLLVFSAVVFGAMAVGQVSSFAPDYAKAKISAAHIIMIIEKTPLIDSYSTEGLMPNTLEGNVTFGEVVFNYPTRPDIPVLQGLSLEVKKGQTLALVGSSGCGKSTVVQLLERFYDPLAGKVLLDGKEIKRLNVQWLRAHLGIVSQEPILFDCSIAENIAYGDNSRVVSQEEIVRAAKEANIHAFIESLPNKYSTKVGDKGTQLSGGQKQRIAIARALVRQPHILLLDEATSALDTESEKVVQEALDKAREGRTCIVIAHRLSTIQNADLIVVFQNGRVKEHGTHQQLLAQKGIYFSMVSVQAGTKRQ

On to `O=C1c2c(O)ccc(O)c2C(=O)c2c(NCCNCCO)ccc(NCCNCCO)c21` [Mitoxantrone], for which the IC50 in series [1] is 920 nM; in series [2] (read-out: IC50 HEK293 (mitoxantrone)) it was 40 nM. Turning to `CC(C)(O)[C@H]1CC[C@@](C)([C@H]2CC[C@]3(C)[C@@H]2[C@H](O)C[C@@H]2[C@@]4(C)CC[C@H](N)C(C)(C)[C@@H]4CC[C@]23C)O1` [ORA, (20S, 24R/S)-epoxy-12β, 25-dihydroxy-dommarane-3β-amine], the EC50 in series [3] was 2080 nM.

For the compound `CC(C)(O)[C@@H]1CC[C@@](C)([C@H]2CC[C@]3(C)[C@@H]2[C@H](O)C[C@@H]2[C@@]4(C)CC[C@H](N)C(C)(C)[C@@H]4CC[C@]23C)O1` [OSA, (20S, 24R/S)-epoxy-12β, 25-dihydroxy-dommarane-3β-amine], the maximal fold induction in series [4] is 1.78. Turning to `CC(=O)O[C@H]1C(=O)[C@@]2(C)[C@H]([C@H](OC(=O)c3ccccc3)[C@]3(O)C[C@H](OC(=O)[C@H](O)[C@@H](NC(=O)c4ccccc4)c4ccccc4)C(C)=C1C3(C)C)[C@]1(OC(C)=O)CO[C@@H]1C[C@@H]2O` [paclitaxel], the “radiolabelled efflux and accumulation in ABCB1-overexpressing versus parental ce” value in series [5] was “decreased much faster over time than those in the parental cells, suggesting an active process of drug efflux mediated by ABCB1”. Further, the IC50 in series [6] turned out to be 8200 nM; in series [2] (read-out: IC50 HEK293 (paclitaxel)), 180 nM.
